{"source": "patent US11884675B2", "about": "“Heterocyclic compounds as triggering receptor expressed on myeloid cells 2 agonists and methods of use” (AMGEN INC., priority 2020, dated 2024)", "data": [{"molecular_target": "hTREM2 (Homo sapiens, UniProt Q9NZC2)", "sequence (Q9NZC2 19-230)": "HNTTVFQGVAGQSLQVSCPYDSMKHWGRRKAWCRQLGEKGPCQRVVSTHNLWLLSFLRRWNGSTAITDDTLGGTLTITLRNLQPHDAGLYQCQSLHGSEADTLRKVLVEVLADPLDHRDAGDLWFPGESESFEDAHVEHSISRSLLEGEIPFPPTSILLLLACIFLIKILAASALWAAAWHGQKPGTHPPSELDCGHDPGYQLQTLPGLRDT", "sequence (O43914 22-113 partner)": "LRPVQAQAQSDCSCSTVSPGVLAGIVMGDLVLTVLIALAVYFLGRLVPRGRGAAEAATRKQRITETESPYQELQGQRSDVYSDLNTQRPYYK", "test": "TREM2 activity by cellular Syk phosphorylation (AlphaScreen/AlphaLISA) in TREM2/DAP12-HEK cells, used for Examples 1-305", "format": "cell-based", "design": "expressed in transfected cells", "conditions": "HEK293 Cells", "how_it_was_run": "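Single-cell-cloned HEK293 cells overexpressing TREM2 and DAP12, seeded 20 h, exposed to test articles (1% final DMSO) for 45 min at room temperature. Lysates read for phospho-Syk (Tyr525/526) vs total Syk by AlphaScreen. Signal normalised as percent of control between isotype IgG and 100 nM anti-TREM2 antibody; 4-parameter logistic fit.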", "units": {"EC50": "nM"}, "values": [{"smiles": "Cc1cc([C@@H]2C[C@@H](c3nc(-c4ccc(Cl)cc4F)c4nc(C)c(C)nc4n3)CCO2)ccn1", "note": "[Example 272, 4-(4-chloro-2-fluorophenyl)-6,7-dimethyl-2-((2S,4S)-2-(2-methylpyridin-4-yl)tetrahydro-2H-pyran-4-yl)pteridine]", "EC50": "≤ 50", "hTREM2 Emax": "++++ (Emax>250)"}, {"smiles": "Cc1ccc(-c2nc([C@@H]3CCO[C@@H](c4ccnc(C)c4)C3)nc3nc(C)c(C)nc23)c(F)c1", "note": "[Example 285, 4-(2-fluoro-4-methylphenyl)-6,7-dimethyl-2-((2R,4R)-2-(2-methylpyridin-4-yl)tetrahydro-2H-pyran-4-yl)pteridine]", "EC50": "50 to 500", "hTREM2 Emax": "++++ (Emax>250)"}, {"smiles": "CC(C)N1Cc2c(cc(N3CCO[C@@H](c4cnn(C)c4)C3)nc2-c2ccc(Cl)cc2F)C1=O", "note": "[Example 122, 4-(4-chloro-2-fluorophenyl)-6-((2S)-2-(1-methyl-1H-pyrazol-4-yl)-4-morpholinyl)-2-(2-propanyl)-2,3-dihydro-1H-pyrrolo[3,4-c]pyridin-1-one]", "EC50": "500 to 3000", "hTREM2 Emax": "+++ (Emax>150 and ≤250)"}, {"smiles": "Cc1ccc2c(-c3ccc(Cl)cc3F)nc(N3CCO[C@@H](c4cnn(C)c4)C3)cc2c1", "note": "[Example 147, 1-(4-chloro-2-fluorophenyl)-6-methyl-3-((2S)-2-(1-methyl-1H-pyrazol-4-yl)-4-morpholinyl) isoquinoline]", "EC50": "3000 to 100000", "hTREM2 Emax": "++++ (Emax>250)"}, {"smiles": "Cc1cc([C@H]2CN(c3nc(-c4ccc(F)cc4F)c4cc(C)c(C)nc4n3)CCO2)ccn1", "note": "[Example 168, 4-(2,4-difluorophenyl)-6,7-dimethyl-2-((2S)-2-(2-methyl-4-pyridinyl)-4-morpholinyl)pyrido[2,3-d] pyrimidine]", "EC50": "≤ 50", "hTREM2 Emax": "++++ (Emax>250)"}, {"smiles": "Cc1ncc([C@@H]2C[C@H](c3nc(-c4ccc(Cl)cc4F)c4nc(C)c(C)nc4n3)CCO2)cn1", "note": "[Example 282, 4-(4-chloro-2-fluorophenyl)-6,7-dimethyl-2-((2S,4R)-2-(2-methylpyrimidin-5-yl)tetrahydro-2H-pyran-4-yl)pteridine]", "EC50": "500 to 3000", "hTREM2 Emax": "++ (Emax>100 and ≤150)"}, {"smiles": "Cn1cc([C@H]2CN(c3cc(-c4ccc(Cl)cc4F)c4cccnc4n3)CCO2)cn1", "note": "[Example 155, 4-(4-chloro-2-fluorophenyl)-2-((2S)-2-(1-methyl-1H-pyrazol-4-yl)-4-morpholinyl)-1,8-naphthyridine]", "EC50": "500 to 3000", "hTREM2 Emax": "++ (Emax>100 and ≤150)"}, {"smiles": "Cc1cnc2c(-c3ccc(Cl)cc3F)nc(N3CCO[C@@H](c4cnn(C)c4)C3)cc2n1", "note": "[Example 73, 5-(4-chloro-2-fluorophenyl)-2-methyl-7-((2S)-2-(1-methyl-1H-pyrazol-4-yl)-4-morpholinyl)pyrido[3,4-b]pyrazine]", "EC50": "50 to 500", "hTREM2 Emax": "++++ (Emax>250)"}, {"smiles": "Cc1nc2nc([C@@H]3CCO[C@H](c4cnn(C5CC5)c4)C3)nc(-c3ccc(C(F)(F)F)nc3)c2nc1C", "note": "[Example 301, 2-((2S,4R)-2-(1-cyclopropyl-1H-pyrazol-4-yl)tetrahydro-2H-pyran-4-yl)-6,7-dimethyl-4-(6-(trifluoromethyl)pyridin-3-yl)pteridine]", "EC50": "≤ 50", "hTREM2 Emax": "+++ (Emax>150 and ≤250)"}, {"smiles": "Cc1cc([C@@H]2C[C@@H](c3nc(-c4ccc(F)cc4F)c4nc(C)c(C)nc4n3)CCO2)ccn1", "note": "(single isomer, unassigned) [Example 212]", "EC50": "500 to 3000", "hTREM2 Emax": "++++ (Emax>250)"}, {"smiles": "CCn1cc([C@H]2CN(c3cc4nc(C)cnc4c(-c4ccc(Cl)cc4F)n3)CCO2)cn1", "note": "[Example 75, 5-(4-chloro-2-fluorophenyl)-7-((2S)-2-(1-ethyl-1H-pyrazol-4-yl)-4-morpholinyl)-2-methylpyrido[3,4-b]pyrazine]", "EC50": "50 to 500", "hTREM2 Emax": "++++ (Emax>250)"}, {"smiles": "CN1Cc2c(cc(N3CCO[C@@H](c4cnn(C)c4)C3)nc2-c2ccc(Cl)cc2F)C1=O", "note": "[Example 119, 4-(4-chloro-2-fluorophenyl)-2-methyl-6-((2S)-2-(1-methyl-1H-pyrazol-4-yl)-4-morpholinyl)-2,3-dihydro-1H-pyrrolo[3,4-c]pyridin-1-one]", "EC50": "50 to 500", "hTREM2 Emax": "++ (Emax>100 and ≤150)"}, {"smiles": "Cc1nc2nc(N3CCO[C@@H](c4cnn(C)c4)C3)nc([C@H]3CCC(C)(C)C3)c2nc1C", "note": "[Example 302, (S)-4-(4-((S)-3,3-dimethylcyclopentyl)-6,7-dimethylpteridin-2-yl)-2-(1-methyl-1H-pyrazol-4-yl)morpholine]", "EC50": "50 to 500", "hTREM2 Emax": "+ (Emax>45 and ≤100)"}, {"smiles": "Cc1nc2nc(N3CCO[C@@H](c4cnn(C5CC5)c4)C3)nc([C@H]3C[C@H](C(F)F)C3)c2nc1C", "note": "[Example 48, 2-((2S)-2-(1-cyclopropyl-1H-pyrazol-4-yl)-4-morpholinyl)-4-(trans-3-(difluoromethyl)cyclobutyl)-6,7-dimethylpteridine]", "EC50": "≤ 50", "hTREM2 Emax": "++ (Emax>100 and ≤150)"}, {"smiles": "Cc1cc([C@@H]2CN(c3cc4nc(C)ccc4c(-c4ccc(Cl)cc4F)n3)CCO2)ccn1", "note": "[Example 240, (R)-4-(5-(4-chloro-2-fluorophenyl)-2-methyl-1,6-naphthyridin-7-yl)-2-(2-methylpyridin-4-yl)morpholine]", "EC50": "3000 to 100000", "hTREM2 Emax": "++++ (Emax>250)"}, {"smiles": "Cc1nc2nc(N3CCO[C@@H](c4cnn(C)c4)C3)nc(-c3ccc(Cl)cc3F)c2nc1C", "note": "[Example 21, 4-(4-chloro-2-fluorophenyl)-6,7-dimethyl-2-((2S)-2-(1-methyl-1H-pyrazol-4-yl)-4-morpholinyl)pteridine]", "EC50": "≤ 50", "hTREM2 Emax": "++++ (Emax>250)"}, {"smiles": "Cc1nc2nc(N3CCO[C@@H](c4cnn(C5CC5)c4)C3)nc([C@H]3C[C@@H](C(F)F)C3)c2nc1C", "note": "[Example 47, 2-((2S)-2-(1-cyclopropyl-1H-pyrazol-4-yl)-4-morpholinyl)-4-(cis-3-(difluoromethyl)cyclobutyl)-6,7-dimethylpteridine]", "EC50": "≤ 50", "hTREM2 Emax": "+ (Emax>45 and ≤100)"}, {"smiles": "Cc1cnc2c(-c3ccc(Cl)cc3F)nc(N3CCO[C@@H](c4cnc(C)nc4)C3)nc2n1", "note": "[Example 4, 4-(4-chloro-2-fluorophenyl)-7-methyl-2-((2S)-2-(2-methyl-5-pyrimidinyl)-4-morpholinyl)pteridine]", "EC50": "50 to 500", "hTREM2 Emax": "+++ (Emax>150 and ≤250)"}, {"smiles": "Cc1nc2nc(N3CCO[C@@H](c4cnn(C5CC5)c4)C3)nc(C3CC4(C3)CC(F)(F)C4)c2nc1C", "note": "[Example 49, 2-((2S)-2-(1-cyclopropyl-1H-pyrazol-4-yl)-4-morpholinyl)-4-(6,6-difluorospiro[3.3]heptan-2-yl)-6,7-dimethylpteridine]", "EC50": "≤ 50", "hTREM2 Emax": "++ (Emax>100 and ≤150)"}, {"smiles": "Cn1cc([C@H]2CN(c3nc(-c4ccc(Cl)cc4F)c4cccnc4n3)CCO2)cn1", "note": "[Example 83, 4-(4-chloro-2-fluorophenyl)-2-((2S)-2-(1-methyl-1H-pyrazol-4-yl)-4-morpholinyl)pyrido[2,3-d]pyrimidine]", "EC50": "500 to 3000", "hTREM2 Emax": "++++ (Emax>250)"}, {"smiles": "Cc1ccc(-c2nc(N3CCO[C@@H](c4cnn(C)c4)C3)nc3nc(C)ccc23)c(F)c1", "note": "[Example 94, 4-(2-fluoro-4-methylphenyl)-7-methyl-2-((2S)-2-(1-methyl-1H-pyrazol-4-yl)-4-morpholinyl)pyrido[2,3-d]pyrimidine]", "EC50": "50 to 500", "hTREM2 Emax": "+++ (Emax>150 and ≤250)"}, {"smiles": "Cc1cc2c(-c3ccc(Cl)cc3F)nc([C@@H]3CCO[C@H](c4cnn(C5CC5)c4)C3)nc2nc1C", "note": "(single isomer, unassigned) [Example 198]", "EC50": "50 to 500", "hTREM2 Emax": "+++ (Emax>150 and ≤250)"}, {"smiles": "Cc1cnc2c(n1)nc(N1CCO[C@@H](c3cnn(C4CC4)c3)C1)nc2[C@H]1C[C@@H](C(F)(F)F)C1", "note": "[Example 12, 2-((2S)-2-(1-cyclopropyl-1H-pyrazol-4-yl)-4-morpholinyl)-7-methyl-4-(cis-3-(trifluoromethyl)cyclobutyl)pteridine]", "EC50": "500 to 3000", "hTREM2 Emax": "++ (Emax>100 and ≤150)"}, {"smiles": "Cc1nc2nc(N3CCO[C@@H](c4cnn(C)c4)C3)nc(-c3cc(F)c(F)cc3F)c2nc1C", "note": "[Example 62, 6,7-dimethyl-2-((2S)-2-(1-methyl-1H-pyrazol-4-yl)-4-morpholinyl)-4-(2,4,5-trifluorophenyl)pteridine]", "EC50": "≤ 50", "hTREM2 Emax": "++++ (Emax>250)"}, {"smiles": "Cc1nc2nc(N3CCO[C@@H](c4cnn(C5CC5)c4)C3)nc(-c3ccc(Cl)cc3F)c2nc1C", "note": "[Example 22, 4-(4-chloro-2-fluorophenyl)-2-((2S)-2-(1-cyclopropyl-1H-pyrazol-4-yl)-4-morpholinyl)-6,7-dimethylpteridine]", "EC50": "≤ 50", "hTREM2 Emax": "++++ (Emax>250)"}, {"smiles": "Cc1cc([C@H]2CN(c3nc4nc(C)cnc4c([C@H]4C[C@@H](C(F)(F)F)C4)n3)CCO2)ccn1", "note": "[Example 15, 7-methyl-2-((2S)-2-(2-methyl-4-pyridinyl)-4-morpholinyl)-4-(cis-3-(trifluoromethyl)cyclobutyl)pteridine]", "EC50": "50 to 500", "hTREM2 Emax": "++ (Emax>100 and ≤150)"}, {"smiles": "Cc1cc([C@H]2CN(c3cc4nc(C)c(C)nc4c([C@H]4C[C@H](C(F)(F)F)C4)n3)CCO2)ccn1", "note": "[Example 82]", "EC50": "50 to 500", "hTREM2 Emax": "+++ (Emax>150 and ≤250)"}, {"smiles": "Cc1nc2nc(N3CCC(F)(F)[C@H](c4cnn(C)c4)C3)nc(-c3ccc(Cl)cc3F)c2nc1C", "note": "(single isomer, unassigned) [Example 124]", "EC50": "≤ 50", "hTREM2 Emax": "++++ (Emax>250)"}, {"smiles": "Cc1nc2nc(N3CCO[C@@H](c4cnn(C)c4)C3)nc(C3CCCC3)c2nc1C", "note": "[Example 140, 4-cyclopentyl-6,7-dimethyl-2-((2S)-2-(1-methyl-1H-pyrazol-4-yl)-4-morpholinyl)pteridine]", "EC50": "50 to 500", "hTREM2 Emax": "++ (Emax>100 and ≤150)"}, {"smiles": "Cc1cnc2c(-c3ccc(Cl)cc3F)nc(N3CCO[C@@H](c4cnn(C)c4)C3)nc2n1", "note": "[Example 1, 4-(4-chloro-2-fluorophenyl)-7-methyl-2-((2S)-2-(1-methyl-1H-pyrazol-4-yl)-4-morpholinyl) pteridine]", "EC50": "≤ 50", "hTREM2 Emax": "++++ (Emax>250)"}]}]}
